Results published in patent US11173175B2, “Uridine diphosphate compounds as mobilizers of hematopoietic progenitor cells” (University of Pittsburgh—Of the Commonwealth System of …, priority 2012, dated 2021).
Entries after “also recorded” stand apart in the source; their conditions may differ.

Key:
[1] = test system: osteoclasts; assay: TRAP staining of femur sections; type: in vivo, mice; conditions: NAC treatment
[2] = test system: LSK and SLAM LSK cells; assay: HSPC mobilization: LSK and SLAM LSK cells quantified by flow cytometry; type: in vivo, mice
Description: (§1) We used 4-6 weeks old C57BL6 and BALB/C in all the experiments. Mice received subcutaneous injections of UDP-glucose (200 mg/kg, Sigma) dissolved in sterile endotoxin-free PBS. G-CSF (Neupogen, Amgen) was administered daily at a dose of 300 μg/kg subcutaneously for 4 consecutive days as previously described (Broxmeyer et al., 2005). […] Antioxidant, N-acetyl-L-cysteine (Sigma-Aldrich), was administered subcutaneously at 100 mg/kg/day. Bone marrow cells were obtained from both femur and tibia and used for flow cytometry and Western blot analysis. All animal studies were conducted after review by the University of Pittsburgh's Institutional Animal Care and Use Committee and in accordance with the University of Pittsburgh's Policy on the Care, Welfare and Treatment of Laboratory Animals.
Peripheral blood Lin-/Sca-1+/c-Kit+(LSK) and CD150+CD48-(SLAM) LSK cells were phenotyped using the following antibodies: lineage markers PE-Cy7-conjugated anti-CD3, anti-CD4, anti-CD8, anti-CD45R, anti-CD11b, anti-Gr-1, and anti-TER-119 (eBioscience); PE-conjugated anti-Sca-1 (eBioscience); APC-conjugated anti-c-Kit (eBioscience); perCP/Cy5.5-conjugated anti-CD150 (BioLegend); pacific Blue™-conjugated anti-CD48 (BioLegend). […] Mitochondrial superoxide level was measured using MitoSox™ (Invitrogen) within LSK cells, according to manufacturer's instructions.
as §1, with “Mice” for “We used 4-6 weeks old C57BL6 and BALB/C in all the experiments. Mice”, “(10).” for “(Broxmeyer et al., 2005).”

[3] = test system: bone marrow homing of peripheral blood cells
[4] = test system: CXCR4; assay: CXCR4 expression on LSK and SLAM LSK cells; type: in vivo, mice
Description: FIG. 14A-14F. […] HSPC mobilization was assessed by measuring the numbers of LSK (upper left panel) and SLAM LSK (upper right panel) cells in peripheral blood. […] Representative images of TRAP staining from each group are shown (bottom panels). […] Shown are obtained from 6-8 weeks old animals. (C) Mice (B6) were injected as described in the legend to FIG. 11A. Bone marrow cells were collected from each treatment group and stained with indicated antibodies followed by flow cytometry analysis. The data are shown as mean values of three independent experiments with standard deviation. ** p<0.01. (D) Bone marrow mononuclear cells were isolated from B6 mice treated as above. To determine the protease activity, bone marrow supernatants harvested from indicated treatment groups were analyzed by zymogram analysis as described in the Methods section. The intensity of the zymogram bands (left panels) was analyzed utilizing densitometry and expressed as arbitrary units (right panels). Densitometric analyses are represented as the ratios to vehicle-treated group (CTL) set to 1. […] (E) Mice were treated as described in the legend to FIG. 13F. Expression levels of CXCR4 were determined in bone marrow (upper panel) and peripheral blood (lower panel) cells after gating on LSK or SLAM LSK subsets. Data are expressed as mean±SD from at least two independent experiments with four mice per group. […]

[5] = test system: RANKL; assay: RANKL expression by Western blot and immunohistochemistry; type: in vivo, mice; conditions: NAC 100 mg/kg/day in comparison with UDP-Glc-treated animals
[6] = test system: LSK cells; assay: Chemotaxis assay; type: cell-based, mouse; conditions: CXCL12 120 ng/ml; UDP-Glc, UTP, UDP 10 μM; 6 hours
[7] = target: T1, P2Y14 receptor (Homo sapiens, UniProt Q15391); conditions: Carter et al. 2009; cited from earlier work
T1 sequence (Q15391 1-338): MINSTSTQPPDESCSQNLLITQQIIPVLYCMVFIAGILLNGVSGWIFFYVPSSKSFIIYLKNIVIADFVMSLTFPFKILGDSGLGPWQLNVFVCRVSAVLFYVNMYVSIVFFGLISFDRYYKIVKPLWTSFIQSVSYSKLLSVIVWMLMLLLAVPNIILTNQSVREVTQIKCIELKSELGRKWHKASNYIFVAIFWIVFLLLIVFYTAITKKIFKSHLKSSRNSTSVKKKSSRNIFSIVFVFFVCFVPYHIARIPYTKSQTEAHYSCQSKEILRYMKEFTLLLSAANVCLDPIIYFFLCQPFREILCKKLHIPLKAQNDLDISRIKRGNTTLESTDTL

[8] = test system: white blood cell (WBC) and lineage-marker expressing cells (CD3, CD11b, and Gr-1); conditions: G-CSFR deficient mice
[9] = target: T1, P2Y14 receptor; conditions: cited from earlier work
[10] = test system: cathepsin G (CG); assay: Zymographic analysis of bone marrow supernatants; type: in vivo, mice
Description: (§2) FIG. 14A-14F. […] HSPC mobilization was assessed by measuring the numbers of LSK (upper left panel) and SLAM LSK (upper right panel) cells in peripheral blood. […] Representative images of TRAP staining from each group are shown (bottom panels). […] Shown are obtained from 6-8 weeks old animals. (C) Mice (B6) were injected as described in the legend to FIG. 11A. Bone marrow cells were collected from each treatment group and stained with indicated antibodies followed by flow cytometry analysis. The data are shown as mean values of three independent experiments with standard deviation. ** p<0.01. (D) Bone marrow mononuclear cells were isolated from B6 mice treated as above. To determine the protease activity, bone marrow supernatants harvested from indicated treatment groups were analyzed by zymogram analysis as described in the Methods section. The intensity of the zymogram bands (left panels) was analyzed utilizing densitometry and expressed as arbitrary units (right panels). Densitometric analyses are represented as the ratios to vehicle-treated group (CTL) set to 1. […] (E) Mice were treated as described in the legend to FIG. 13F. Expression levels of CXCR4 were determined in bone marrow (upper panel) and peripheral blood (lower panel) cells after gating on LSK or SLAM LSK subsets. Data are expressed as mean±SD from at least two independent experiments with four mice per group. […] Recipient mice were conditioned (11 Gy) 24 hours before injection of cells.

[11] = test system: MMP-9; assay: Zymographic analysis of bone marrow supernatants; type: in vivo, mice
Description: as §2

[12] = test system: neutrophil elastase (NE); assay: Zymographic analysis of bone marrow supernatants; type: in vivo, mice
Description: as §2

[13] = test system: long-term repopulating HSPCs; assay: Competitive repopulation and serial transplantation assays; type: in vivo, mice
Description: (§3) The ratio of CD45.1/CD45.2 cells in recipient's peripheral blood was determined at various times after transplantation.
as §3

[14] = percentage of gated cells within the total number, UDP-Glc 200 mg/kg 6 days, G-CSF 300 μg/kg 4 days

CC(=O)N[C@@H](CS)C(=O)O [NAC, N-acetyl-L-cysteine]
UDP-Glc-induced osteoclastogenesis with NAC [1]: significantly suppressed with NAC treatment
effect of NAC on UDP-Glc-induced LSK / SLAM LSK cell mobilization ([2]; NAC 100 mg/kg/day s.c.): significantly abrogate the LSK and SLAM LSK cell mobilization induced by UDP-Glc; also recorded: significantly suppressed by NAC treatment
effect of NAC pretreatment on homing of UDP-Glc-mobilized cells [3]: inhibited by NAC pretreatment
effect of NAC on UDP-Glc-induced CXCR4 expression [4]: able to abrogate the increase of CXCR4 expression induced by UDP-Glc, albeit not completely
RANKL expression with NAC [5]: notably lowered

O=c1ccn([C@@H]2O[C@H](COP(=O)(O)OP(=O)(O)O)[C@@H](O)[C@H]2O)c(=O)[nH]1 [UDP, uridine diphosphate]
LSK cells in the peripheral circulation, UDP alone ([2]; UDP 200 mg/kg s.c.): did not elicit any appreciable change in the number of LSK cells
effect of UDP on UDP-Glc-induced LSK cell mobilization ([2]; UDP 200 mg/kg with UDP-Glc 200 mg/kg): antagonized UDP-Glc-induced LSK cell mobilization
chemotactic migration of mouse LSK cells [6]: could chemoattract LSK cells in vitro in the presence or absence of CXCL12
agonist activity at the human P2Y14 receptor [7]: potent agonist of the human P2Y14 receptor
peripheral CD11b+, GR1+ and CD3+ cells in Csf3r−/− mice [8]: minimally affected

O=c1ccn([C@@H]2O[C@H](COP(=O)([O-])OP(=O)([O-])O[C@H]3O[C@H](CO)[C@@H](O)[C@H](O)[C@H]3O)[C@@H](O)[C@H]2O)c(=S)[nH]1.[Na+].[Na+] [MRS 2690]
potency relative to UDP-Glc [9]: approximately 7 fold

O=c1ccn([C@@H]2O[C@H](COP(=O)(O)OP(=O)(O)OP(=O)(O)O)[C@@H](O)[C@H]2O)c(=O)[nH]1 [UTP, uridine-5′-triphosphate, reference compound]
chemotactic migration of mouse LSK cells [6]: only a slight increase for mouse LSK cell migration with no statistical significance

B1: G-CSF: G-CSF (Neupogen, Amgen), most commonly used cytokine for mobilization of HSPCs (protein, chains of the INN, looked up)
chain: MTPLGPASSLPQSFLLKCLEQVRKIQGDGAALQEKLCATYKLCHPEELVLLGHSLGIPWAPLSSCPSQALQLAGCLSQLHSGLFLYQGLLQALEGISPELGPTLDTLQLDVADFATTIWQQMEELGMAPALQPTQGAMPAFASAFQRRAGGVLVASHLQSFLEVSYRVLRHLAQP
LSK cells in mobilized peripheral blood [2, 14]: 0.058%
SLAM LSK cells in mobilized peripheral blood [2, 14]: 0.0014%
level of CG [10]: Elevated levels
level of MMP-9 [11]: Elevated levels
level of NE [12]: Elevated levels
competitive repopulation, UDP-Glc- vs G-CSF-mobilized cells, early ([13]; one month following transplantation): considerable competitive advantage over UDP-Glc-mobilized cells
competition in secondary recipients, bone marrow cells ([13]; serial transplantation, UDP-Glc (CD45.2) vs G-CSF (CD45.1)): completely out-competed by the cells derived from UDP-Glc mobilization
